# Patent US9676760B2, “Fused heterocyclic compounds as ion channel modulators” (Gilead Sciences, Inc., priority 2011, dated 2017)
# Biological target: wild-type human cardiac sodium channel, hNav1.5 (Homo sapiens, UniProt Q14524)
# Test: Late INa screening assay (QPatch whole cell patch clamp, HEK293)
# Assay type: cell-based
# Settings: HEK293, percent block of late INa; compound at 1 μM; 10 μM Tefluthrin; read-out: Late INa 1 μM
# Outline: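 HEK293 stably expressing hNav1.5 without beta subunits, recorded at 23-25° C. Late current was induced by 10 μM tefluthrin. Cells were depolarized from −120 mV to −20 mV for 250 ms at 0.1 Hz. Compounds were tested at 1 μM in extracellular solution, with baseline taken in 0Na-ECF; output is percent block of late INa.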
# Chain of wild-type human cardiac sodium channel, hNav1.5 (Q14524 whole entry): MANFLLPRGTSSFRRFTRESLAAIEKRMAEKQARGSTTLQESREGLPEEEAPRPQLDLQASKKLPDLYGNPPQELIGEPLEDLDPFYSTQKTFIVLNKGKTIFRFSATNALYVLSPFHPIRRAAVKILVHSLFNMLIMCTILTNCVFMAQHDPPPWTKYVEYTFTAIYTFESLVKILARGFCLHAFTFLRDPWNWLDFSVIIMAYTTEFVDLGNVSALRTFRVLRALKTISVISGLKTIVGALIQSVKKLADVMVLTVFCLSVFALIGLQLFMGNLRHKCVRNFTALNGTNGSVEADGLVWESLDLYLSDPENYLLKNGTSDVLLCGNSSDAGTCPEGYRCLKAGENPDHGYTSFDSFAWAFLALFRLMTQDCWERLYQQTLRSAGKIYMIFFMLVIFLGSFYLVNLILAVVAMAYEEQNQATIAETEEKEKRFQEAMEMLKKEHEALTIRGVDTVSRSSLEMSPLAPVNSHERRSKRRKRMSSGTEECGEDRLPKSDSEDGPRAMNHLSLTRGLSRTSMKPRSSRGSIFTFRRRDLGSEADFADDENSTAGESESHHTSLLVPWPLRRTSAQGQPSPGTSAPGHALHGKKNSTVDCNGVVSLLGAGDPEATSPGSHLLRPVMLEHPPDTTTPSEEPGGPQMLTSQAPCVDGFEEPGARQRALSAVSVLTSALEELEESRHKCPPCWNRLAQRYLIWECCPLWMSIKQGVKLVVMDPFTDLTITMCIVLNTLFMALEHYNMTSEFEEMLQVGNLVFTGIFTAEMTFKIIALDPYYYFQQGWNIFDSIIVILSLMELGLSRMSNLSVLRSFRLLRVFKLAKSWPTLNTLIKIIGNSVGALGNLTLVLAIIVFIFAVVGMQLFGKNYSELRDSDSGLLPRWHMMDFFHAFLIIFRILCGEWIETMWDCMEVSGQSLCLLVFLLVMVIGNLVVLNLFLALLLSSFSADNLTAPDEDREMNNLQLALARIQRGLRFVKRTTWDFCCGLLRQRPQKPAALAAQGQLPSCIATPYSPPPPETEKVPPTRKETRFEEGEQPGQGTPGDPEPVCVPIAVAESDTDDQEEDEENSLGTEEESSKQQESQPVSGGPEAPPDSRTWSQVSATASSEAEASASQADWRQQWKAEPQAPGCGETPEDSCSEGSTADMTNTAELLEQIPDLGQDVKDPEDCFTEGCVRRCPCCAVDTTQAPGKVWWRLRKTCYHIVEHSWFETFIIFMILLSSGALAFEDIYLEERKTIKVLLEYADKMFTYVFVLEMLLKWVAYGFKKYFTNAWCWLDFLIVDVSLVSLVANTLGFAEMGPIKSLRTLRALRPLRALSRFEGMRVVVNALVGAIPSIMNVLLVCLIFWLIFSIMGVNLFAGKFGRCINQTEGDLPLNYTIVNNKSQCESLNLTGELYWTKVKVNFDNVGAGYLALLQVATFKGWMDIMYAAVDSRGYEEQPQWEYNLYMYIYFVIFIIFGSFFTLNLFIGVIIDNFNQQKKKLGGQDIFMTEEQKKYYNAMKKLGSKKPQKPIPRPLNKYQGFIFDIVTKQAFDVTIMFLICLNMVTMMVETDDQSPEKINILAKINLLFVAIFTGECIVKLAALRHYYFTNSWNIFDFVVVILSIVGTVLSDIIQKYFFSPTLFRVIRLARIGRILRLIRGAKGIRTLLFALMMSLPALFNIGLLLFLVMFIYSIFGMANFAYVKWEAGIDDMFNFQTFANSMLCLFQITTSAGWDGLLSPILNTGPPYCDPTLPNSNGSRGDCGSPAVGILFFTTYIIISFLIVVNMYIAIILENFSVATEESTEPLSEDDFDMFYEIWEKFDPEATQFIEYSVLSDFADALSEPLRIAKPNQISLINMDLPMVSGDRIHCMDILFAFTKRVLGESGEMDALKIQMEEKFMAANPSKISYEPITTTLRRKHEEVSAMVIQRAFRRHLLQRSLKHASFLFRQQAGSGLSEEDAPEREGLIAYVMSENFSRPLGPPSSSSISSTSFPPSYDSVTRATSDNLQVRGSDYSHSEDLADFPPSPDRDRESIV
row,Compound,inhibition at 1 µM
1,"O=C1c2cc(-c3ccc(C4CC4)cc3)ccc2OCCN1Cc1ncccn1 [II-92, 7-(4-cyclopropylphenyl)-4-(pyrimidin-2-ylmethyl)-3,4-dihydrobenzo[f][1,4]oxazepin-5 (2H)-one]",34%
2,"O=C1c2cc(-c3ccc(OS(=O)(=O)C(F)(F)F)cc3)ccc2OCCN1Cc1ncccn1 [II-171, 4-(5-oxo-4-(pyrimidin-2-ylmethyl)-2,3,4,5-tetrahydrobenzo[f][1,4]oxazepin-7-yl)phenyl trifluoromethanesulfonate]",24%
3,"O=C1c2cc(-c3ccc(OCC(F)(F)F)c(F)c3)ccc2OCCN1Cc1ncccn1 [II-106, 7-(3-fluoro-4-(2,2,2-trifluoroethoxy)phenyl)-4-(pyrimidin-2-ylmethyl)-3,4-dihydrobenzo[f][1,4]oxazepin-5(2H)-one]",18%
4,"O=C1c2cc(-c3ccc(OC(F)(F)F)cc3)ccc2OCCN1Cc1nccc(C(F)(F)F)n1 [II-113, 7-(4-(trifluoromethoxy)phenyl)-4-((4-(trifluoromethyl)pyrimidin-2-yl)methyl)-3,4-dihydrobenzo[f][1,4]oxazepin-5(2H)-one]",27%
5,"O=C1c2cc(-c3ccc(OC(F)(F)F)cc3)ccc2OCCN1Cc1nnc(C2CC2)o1 [II-68, 4-((5-cyclopropyl-1,3,4-oxadiazol-2-yl)methyl)-7-(4-(trifluoromethoxy)phenyl)-3,4-dihydrobenzo[f][1,4]oxazepin-5(2H)-one]",17%
6,"O=C1c2cc(CCc3ccc(C(F)(F)F)cc3)ccc2OCCN1Cc1ccccn1 [VIII-7, 4-(pyridin-2-ylmethyl)-7-(4-(trifluoromethyl)phenethyl)-3,4-dihydrobenzo[f][1,4]oxazepin-5(2H)-one]",59%
7,"O=C1NC(Cc2ccccn2)COc2ccc(-c3ccc(OC(F)(F)F)cc3)cc21 (stereo not drawn) [II-142, 3-(pyridin-2-ylmethyl)-7-(4-(trifluoromethoxy)phenyl)-3,4-dihydrobenzo[f][1,4]oxazepin-5(2H)-one]",19%
8,"Cn1cnc(CN2CCOc3ccc(-c4ccc(OC(F)(F)F)cc4)cc3C2=O)c1 [II-154, 4-((1-methyl-1H-imidazol-4-yl)methyl)-7-(4-(trifluoromethoxy)phenyl)-3,4-dihydrobenzo[f][1,4]oxazepin-5(2H)-one]",25%
9,"C[C@H](c1ncccn1)N1CCOc2ccc(-c3ccc(C(F)(F)F)cc3)cc2C1=O [II-95, (R)-4-(1-(pyrimidin-2-yl)ethyl)-7-(4-(trifluoromethyl)phenyl)-3,4-dihydrobenzo[f][1,4]oxazepin-5(2H)-one]",19%
10,"C[C@@H]1CN(C(=O)c2ncccn2)Cc2cc(-c3ccc(OC(F)(F)F)cc3)ccc2O1 [III-38, (R)-(2-methyl-7-(4-(trifluoromethoxy)phenyl)-2,3-dihydrobenzo[f][1,4]oxazepin-4(5H)-yl)(pyrimidin-2-yl)methanone]",28%
11,"O=C1c2cc(-c3ccc(OC(F)(F)F)cc3)ncc2OCCN1Cc1ncccn1 [XII-5, 4-(pyrimidin-2-ylmethyl)-7-(4-(trifluoromethoxy)phenyl)-3,4-dihydropyrido[4,3-f][1,4]oxazepin-5(2H)-one]",25%
12,"CCOC(=O)c1cccc(CN2CCOc3ccc(-c4ccc(OC(F)(F)F)cc4)cc3C2=O)c1 [II-43, ethyl 3-((5-oxo-7-(4-(trifluoromethoxy)phenyl)-2,3-dihydrobenzo[f][1,4]oxazepin-4(5H)-yl)methyl)benzoate]",23%
13,"O=C1c2ccc(-c3cccc(C(F)(F)F)c3)cc2OCCN1Cc1ncccn1 [IV-4, 4-(pyrimidin-2-ylmethyl)-8-(3-(trifluoromethyl)phenyl)-3,4-dihydrobenzo[f][1,4]oxazepin-5(2H)-one]",14%
14,"O=C1c2cc(Oc3ccc(OC(F)(F)F)cc3)ccc2OCCN1Cc1ncccn1 [XIII-2, 4-(pyrimidin-2-ylmethyl)-7-(4-(trifluoromethoxy)phenoxy)-3,4-dihydrobenzo[f][1,4]oxazepin-5(2H)-one]",19%
15,"CC(C)(C)OC(=O)N1CCn2cc(C(=O)N3CCOc4ccc(-c5ccc(C(F)(F)F)cc5)cc4C3)nc2C1 [III-40, tert-butyl 2-(7-(4-(trifluoromethyl)phenyl)-2,3,4,5-tetrahydrobenzo[f][1,4]oxazepine-4-carbonyl)-5,6-dihydroimidazo[1,2-a]pyrazine-7(8H)-carboxylate]",22%
16,"CC1(C)COC(C)(CCN2CCOc3ccc(-c4ccc(OC(F)(F)F)cc4)cc3C2=O)OC1 [II-35, 7-(4-(trifluoromethoxy)phenyl)-4-(2-(2,5,5-trimethyl-1,3-dioxan-2-yl)ethyl)-3,4-dihydrobenzo[f][1,4]oxazepin-5(2H)-one]",25%
17,"O=C1c2cc(-c3ccc(C(F)(F)F)cc3)ccc2OC[C@@H]2CN(CC(F)F)CCN12 [II-24, (S)-2-(2,2-difluoroethyl)-8-(4-(trifluoromethyl)phenyl)-3,4,12,12a-tetrahydro-1H-benzo[f]pyrazino[2,1-c][1,4]oxazepin-6(2H)-one]",23%
18,"O=C1c2cc(-c3ccc(OC4CC4)cc3)ccc2OCCN1Cc1ncccn1 [II-102, 7-(4-cyclopropoxyphenyl)-4-(pyrimidin-2-ylmethyl)-3,4-dihydrobenzo[f][1,4]oxazepin-5(2H)-one]",21%
19,"O=C1c2cc(CCc3ccc(C(F)(F)F)cc3)ccc2OCCN1Cc1ncccn1 [VIII-8, 4-(pyrimidin-2-ylmethyl)-7-(4-(trifluoromethyl)phenethyl)-3,4-dihydrobenzo[f][1,4]oxazepin-5(2H)-one]",47%
20,"O=C1c2cc(-c3ccc(OC(F)(F)F)cc3)ccc2OCCN1Cc1cccnc1 [II-70, 4-(pyridin-3-ylmethyl)-7-(4-(trifluoromethoxy)phenyl)-3,4-dihydrobenzo[f][1,4]oxazepin-5(2H)-one]",37%
21,"O=C1c2cc(-c3ccc(F)cc3)ccc2OCCN1Cc1ncccn1 [II-104, 7-(4-fluorophenyl)-4-(pyrimidin-2-ylmethyl)-3,4-dihydrobenzo[f][1,4]oxazepin-5(2H)-one]",21%
22,"O=C1c2cc(/C=C/c3ccc(C(F)(F)F)cc3)ccc2OCCN1Cc1ccccc1 [VIII-10, (E)-4-benzyl-7-(4-(trifluoromethyl)styryl)-3,4-dihydrobenzo[f][1,4]oxazepin-5(2H)-one]",25%
23,"O=C(NCCN1CCOc2ccc(-c3ccc(OC(F)(F)F)cc3)cc2C1=O)c1ncccn1 [II-192, N-(2-(5-oxo-7-(4-(trifluoromethoxy)phenyl)-2,3-dihydrobenzo[f][1,4]oxazepin-4(5H)-yl)ethyl)pyrimidine-2-carboxamide]",15%
24,"O=C1c2cc(-c3ccc(OC(F)(F)F)cc3)ccc2OCCN1CCNS(=O)(=O)C1CC1 [II-179, N-(2-(5-oxo-7-(4-(trifluoromethoxy)phenyl)-2,3-dihydrobenzo[f][1,4]oxazepin-4(5H)-yl)ethyl)cyclopropanesulfonamide]",21%
25,"O=C1c2cc(-c3ccc(C(F)(F)F)cc3)ccc2OC[C@H]2CN(Cc3ncccn3)CCN12 [II-8, (R)-2-(pyrimidin-2-ylmethyl)-8-(4-(trifluoromethyl)phenyl)-3,4,12,12a-tetrahydro-1H-benzo[f]pyrazino[2,1-c][1,4]oxazepin-6(2H)-one]",21%
26,"O=C1c2cc(-c3ccc(C(F)(F)F)cn3)ccc2OCCN1Cc1ccccn1 [VI-26, 4-(pyridin-2-ylmethyl)-7-(5-(trifluoromethyl)pyridin-2-yl)-3,4-dihydrobenzo[f][1,4]oxazepin-5(2H)-one]",28%
27,"O=C1c2cc(-c3ccc(OC(F)(F)F)cc3)ccc2OCCN1Cc1ncc(-c2ccc(C(F)(F)F)nc2)cn1 [II-115, 7-(4-(trifluoromethoxy)phenyl)-4-((5-(6-(trifluoromethyl)pyridin-3-yl)pyrimidin-2-yl)methyl)-3,4-dihydrobenzo[f][1,4]oxazepin-5(2H)-one]",21%
